The values below come from publication PMC7181660, “A novel specific PERK activator reduces toxicity and extends survival in Huntington's disease models” (Scientific Reports, 2020).

The data set has as its system STHdh^Q111/111 cells. Kind of data set: Apoptosis of STHdh^Q111/111 cells with the NRF2 inhibitor ML385. In kind it is cell-based, murine. The procedure: STHdh^Q111/111 cells (used before[13]) or PERK+/+ or PERK−/− MEFs (kindly provided by David Ron, Univ. Cambridge) were incubated with Tun (10 μg/ml) for 48 h, which results in ER stress-induced cell death. Cells under the same conditions were incubated for the same times, together with Tun, with increasing concentrations of the different PERK modulators (0–120 μM) and the percent of apoptotic cells was measured by FACS cell cycle progression using propidium iodide (PI), considering the fraction beneath G0/G1. The relative apoptosis rate was calculated to be able to compare between compounds and experiments, where for each concentration curve the percent of apoptotic cells was considered 100 at concentration 0 of the PERK modulator, with only Tun. The graphs show the average relative apoptosis rate of at least 3 independent experiments for each compound.
Suppl. Fig. S5. NRF2 activation but not involvement in cell protection by MK-28. A)
Scheme of NRF2 activation by PERK. B) qPCR of HMOX1, a downstream target of NR F2.
Medians +- interquartile range of 3 independent experiments . P values of STHdhQ7/7 MK 5µM […]
presence of Tun and the indicated concentrations of MK-28, plus increasing concentrations of the NRF2 inhibitor ML385. Average of 3 independent experiments +-SD. D) Apoptosis of STHdhQ111/111 cells treated only with increasing concentrations of ML385. […]

On to `Cc1ccccc1C(=O)N1CCc2cc(-c3nc(NC(=O)Cc4ccc5c(c4)OCO5)sc3C)ccc21` [ML385], for which, for the setting “Tun + MK-28 + increasing ML385”, the “reversal of the cytoprotective effect of MK-28” value is “did not reverse to any significant extent”. Where the note is “increasing concentrations”, the “toxicity (apoptosis) of ML385” value was “caused some toxicity”.
